Data as given in patent US20240238268A1, “TREATMENTS AND METHODS FOR TREATING ALZHEIMER'S DISEASE” (Board of Supervisors of Louisiana State University and …, priority 2021, published 2024).

Assays:
PRMT4 = PRMT4 (Homo sapiens, UniProt Q86X55); settings: cited from earlier work
aged 3xTg-AD female mice [1] = assay: Neurovascular coupling: microvessel diameter after whisker stimulation, two-photon laser scanning microscopy; type: in vivo, mouse; settings: TP-064 30 mg/kg for 7 days, IP or PRMT4-AAV knockdown
Description: FIGS. 11A-11D show neurovascular coupling dysfunction was alleviated with specific PRMT4 inhibitor (TP-064) or PRMT4-AAV knockdown in aged 3xTg-AD female mice. In FIG. 11A, neurovascular coupling was evaluated based on vascular tonicity changes in response to whisker stimulation (30 sec, 4 Hz) via two-photon laser scanning microscopy. FITC-dextran was injected IV for visualization of cerebral microvessels (Z=100 μm depth) in the cortex. In FIG. 11B, vessel diameters were measured before/after whisker stimulation, and before/after TP-064 (30 mg/kg for 7 days, IP) or PRMT4-AAV knockdown.
Determining if inhibition of PRMT4 can promote neurovascular coupling. […] One reason for this is the loss of neurovascular coupling is associated with the early progression of AD. Whisker-barrel stimulation is a well-established model for examining neurovascular coupling [Rodgers (our in-house collaborator) et al., 2006, 2008, 2009]. The inventors measured cortical microvessel vascular reactivity with two-photon laser scanning microscopy while evoking 30 sec of whisker stimulation in mice. Based on the inventors' findings that aged 3xTg-AD female mice had enhanced PRMT4 expression (FIGS. 2A-3C and 5A-5D), the inventors' results evidence that aged 3xTg-AD female mice presented decreased cortical microvessel diameter as compared to aged 3xTg-AD male mice 30 see (4 Hz) after whisker stimulation. […]

aged 3xTg-AD female mice [2] = assay: Leukocyte rolling velocity, two-photon laser scanning microscopy; type: in vivo, mouse
Description: FIGS. 17A-17D show leukocyte rolling velocity was reduced in aged 3xTg-AD female mice.
Leukocytes velocity measurements were performed by linescans (512 lines/sec). *p<0.05 compared to aged 3xTg-AD male or C57 female evaluated by unpaired t-test. FIGS. 18A and 18B are capillary-based immunoassay and associated graphs showing PRMT4 inhibitor (TP-064) or AAV knockdown of PRMT4 reduced GFAP levels in aged 3xTg-AD female mice. Glial fibrillary acidic protein (GFAP, 55 kDa) was increased in aged 3xTg-AD female mice v. C57, which indicates neuroinflammation, but reversed with TP-064 (30 mg/kg, 7 days, IP) or PRMT4-AAV treatment in cortex, shown in FIG. 18A, and hippocampus, shown in FIG. 18B. Protein level was measured by capillary-based immunoassay and normalized to total protein. *p<0.05 as compared to C57, #p<0.05 v. 3xTg-AD evaluated by one-way ANOVA with Tukey's post-hoc analyses.

aged 3xTg-AD female mice [3] = assay: Novel Object Recognition; type: in vivo, mouse
Description: FIGS. 20A and 20B are two graphs showing PRMT4 inhibitor (TP-064) or AAV knockdown of PRMT4 improved functional learning/memory in aged 3xTg-AD female mice. […] C57 but increased with administration of TP-064 (30 mg/kg, 7 days, IP). In FIG. 20B, in Novel Object Recognition, aged 3xTg-AD female mice had fewer number of entries in the novel zone v. C57. Treatment with TP-064 or brain-specific AAV knockdown of PRMT4 increased the number of entries. T-maze and novel object recognition test were utilized to analyze working/short-term and reference/long-term memory, respectively. * p<0.05 v. C57 via one-way ANOVA with Tukey's post-hoc analyses.

Chain of PRMT4 (Q86X55 whole entry, species assumed): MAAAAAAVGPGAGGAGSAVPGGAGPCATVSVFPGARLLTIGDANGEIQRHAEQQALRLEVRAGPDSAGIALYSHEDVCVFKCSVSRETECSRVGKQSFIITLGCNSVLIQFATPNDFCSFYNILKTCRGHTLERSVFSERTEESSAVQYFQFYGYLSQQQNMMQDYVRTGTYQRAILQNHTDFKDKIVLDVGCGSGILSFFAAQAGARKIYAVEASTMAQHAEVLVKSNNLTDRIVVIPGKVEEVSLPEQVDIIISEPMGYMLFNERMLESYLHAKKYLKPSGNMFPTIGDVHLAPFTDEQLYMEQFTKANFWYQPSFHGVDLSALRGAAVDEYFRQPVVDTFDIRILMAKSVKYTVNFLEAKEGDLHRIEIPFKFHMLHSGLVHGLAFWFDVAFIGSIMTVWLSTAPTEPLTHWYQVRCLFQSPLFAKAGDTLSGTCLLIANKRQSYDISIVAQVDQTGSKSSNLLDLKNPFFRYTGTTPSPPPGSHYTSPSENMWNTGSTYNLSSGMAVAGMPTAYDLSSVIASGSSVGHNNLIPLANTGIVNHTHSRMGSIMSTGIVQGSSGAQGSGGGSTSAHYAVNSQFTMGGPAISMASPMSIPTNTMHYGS

For `CNCCN1CCC(c2cc(CN(C)C(=O)c3cccc(Oc4ccccc4)c3)ccn2)CC1` [TP-064, N-Methyl-N-((2-(1-(2-(methylamino)ethyl)piperidin-4-yl)pyridin-4-yl)methyl)-3-phenoxybenzamide], the “selectivity over other histone methyltransferases and non-epigenetic targets” value (PRMT4) is given as greater than 100 fold, the “microvessel diameter after whisker stimulation” value (aged 3xTg-AD female mice [1]) is given as “increased” and the leukocyte rolling velocity (aged 3xTg-AD female mice [2]) is given as “increased”. The “number of entries in the novel zone” value (aged 3xTg-AD female mice [3]) was “increased”.
